{
  "source": "paper PMC2216842",
  "about": "(The Journal of General Physiology, 1994)",
  "key": {"[1]": {"assay": "Solubility in test solution", "conditions": "external solution, from 500 mM DMSO stock"}, "[2]": {"system": "BTX-modified Na+ channels in GH3 cells", "type": "cell-based, rat", "conditions": "for enhancement of the inactivation of BTX-modified Na+ channels: benzocaine derivatives"}, "[3]": {"system": "BTX-modified Na+ channels in GH3 cells", "assay": "Whole-cell voltage clamp, voltage-ramp protocol", "type": "cell-based, rat", "conditions": "for effect of external Na+ ions on binding: 0 vs 130 mM external Na+; for change of binding after CT treatment: 0.5 mM CT 5 min; for IC50 / voltage dependence of block: voltage ramp; for IC50: no external Na+; for voltage dependence of block: quasi steady state"}, "[4]": {"system": "unmodified Na+ channels in GH3 cells", "assay": "Whole-cell voltage clamp, tonic and use-dependent block of normal Na+ currents", "type": "cell-based, rat", "conditions": "1 mM; for tonic block of normal Na+ currents: +30 mV test pulse, prepulse -130 mV; for use-dependent block of normal Na+ currents: repetitive +30 mV pulses, 25 ms at 5 Hz"}},
  "note": "Like-named read-outs stand apart in the source and are kept apart here.",
  "data": [
    {"compound": "CCOC(=O)c1ccc(N)cc1", "note": "[benzocaine, Benzocaine]", "values": [
      {"measurement": "solubility", "setting": "[1]", "result": "poor solubility of benzocaine at concentrations higher than 3 mM"},
      {"measurement": "IC50", "setting": "[2]; read-out: concentration that inhibits 50% of BTX-modified Na+ currents (IC50), at -70 mV, GH3 cells", "result": 200, "unit": "µM"},
      {"measurement": "effect of external Na+ ions on binding", "setting": "[3]", "result": "do not reduce benzocaine binding"},
      {"measurement": "change of binding after CT treatment", "setting": "[3]; measured from -75 mV to +50 mV, 1 and 3 mM", "result": "greatly reduced"},
      {"measurement": "shift of V0.5 toward the depolarizing direction", "setting": "[3]; 1 mM benzocaine on BTX-modified channels, 130 mM external Na+", "result": "about 20 mV"},
      {"measurement": "IC50", "setting": "[3]; at +50 mV", "result": "~1200", "unit": "µM"},
      {"measurement": "IC50", "setting": "[3]; at -50 mV", "result": 300, "unit": "µM"},
      {"measurement": "voltage dependence of block", "setting": "[3]", "result": "greater at the resting membrane potential (-50 to -90 mV) than at positive potentials (0 to +50 mV)"},
      {"measurement": "left shift in steady-state inactivation", "setting": "[4]", "result": "about 20 mV"},
      {"measurement": "tonic block of normal Na+ currents", "setting": "[4]", "result": "produces a tonic block"},
      {"measurement": "use-dependent block of normal Na+ currents", "setting": "[4]", "result": "fails to elicit additional use-dependent block"}
    ]},
    {"compound": "batrachotoxin [BTX]", "values": [
      {"measurement": "activation threshold, more negative than that of normal Na+ currents", "setting": "[3]; BTX-modified channels, threshold near -90 mV", "result": "~ 50 mV"}
    ]},
    {"compound": "CCOC(=O)c1cccc(O)c1", "note": "[ethyl 3-hydroxy benzoate]", "values": [
      {"measurement": "enhancement of the inactivation of BTX-modified Na+ channels", "setting": "[2]", "result": "acted more or less as benzocaine"}
    ]},
    {"compound": "COC(=O)[C@H]1[C@@H](OC(=O)c2ccccc2)C[C@@H]2CC[C@H]1N2C", "note": "[cocaine, (-)-cocaine]", "values": [
      {"measurement": "change of binding after CT treatment", "setting": "[3]; from 0 to +50 mV, 0.1 or 0.3 mM", "result": "small reduction"},
      {"measurement": "change of binding after CT treatment", "setting": "[3]; from -50 mV to -30 mV, 0.1 or 0.3 mM", "result": "slightly enhanced"},
      {"measurement": "voltage dependence of block", "setting": "[3]", "result": "significantly stronger at +50 mV than at -50 mV"}
    ]},
    {"compound": "CCOC(=O)c1ccc(O)cc1", "note": "[ethyl 4-hydroxy benzoate]", "values": [
      {"measurement": "enhancement of the inactivation of BTX-modified Na+ channels", "setting": "[2]", "result": "acted more or less as benzocaine"}
    ]},
    {"compound": "COC(=O)c1ccc(N)cc1", "note": "[methyl 4-amino benzoate]", "values": [
      {"measurement": "enhancement of the inactivation of BTX-modified Na+ channels", "setting": "[2]", "result": "acted more or less as benzocaine"}
    ]},
    {"compound": "CCOC(=O)c1ccc(N(C)C)cc1", "note": "[N-dimethyl benzocaine, ethyl p-dimethylamino-benzoate]", "values": [
      {"measurement": "solubility", "setting": "[1]", "result": "could not reliably dissolve N-dimethyl benzocaine at 3 mM even after heating"},
      {"measurement": "enhancement of the inactivation of BTX-modified Na+ channels", "setting": "[2]", "result": "failed to enhance the inactivation"},
      {"measurement": "effect of external Na+ ions on binding", "setting": "[3]", "result": "no effect"},
      {"measurement": "voltage dependence of block", "setting": "[3]", "result": "enhanced by depolarization"},
      {"measurement": "left shift in steady-state inactivation", "setting": "[4]", "result": "~ 10 mV"},
      {"measurement": "tonic block of normal Na+ currents", "setting": "[4]", "result": "produces a tonic block"},
      {"measurement": "use-dependent block of normal Na+ currents", "setting": "[4]", "result": "elicits additional use-dependent block"}
    ]},
    {"compound": "CCOC(=O)c1cccc(N)c1", "note": "[tricaine]", "values": [
      {"measurement": "enhancement of the inactivation of BTX-modified Na+ channels", "setting": "[2]", "result": "acted more or less as benzocaine"}
    ]}
  ]
}
